pEC50: −log10 of the molar value.
System: HIV (HTLV-III B strain)
Experiment: HIV replication inhibition assay (MTT, MT-4 cells)
Assay type: cell-based
Conditions: 4 days culture, concentration at which cell cytotoxicity by virus is inhibited 50%
Procedure, shortened: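 MT-4 cells (2.5×10^4/well) infected with HTLV-III B stock (60 pfu) in presence of compound, cultured four days at 37 °C. Viability by MTT reduction, formazan read at 560 and 690 nm. EC50 is concentration inhibiting virus-induced cytotoxicity by 50%.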

| SMILES | pEC50 |
| --- | --- |
| Cc1c(C(OC(C)(C)C)C(=O)O)c(-c2ccc3c(c2)CCCO3)c(C)c2c1[nH]c(=O)n2Cc1ccccc1 (stereo not drawn) [Compound 3] | 7.19 |
| Cc1cc(Cl)ccc1-c1c(C)c2c(c(C)c1[C@H](OC(C)(C)C)C(=O)O)N(S(C)(=O)=O)Cc1c(F)ccc(F)c1-2 [Compound 317] | 7.15 |
| Cc1cc(Cl)ccc1-c1c(C)c2c(c(C)c1[C@H](OC(C)(C)C)C(=O)O)N(S(C)(=O)=O)Cc1c(F)ccc(F)c1-2 [Compound 318] | 7.77 |

Same assay, conditions: Human immunodeficiency virus 1, MT4, 96 h, 4 days culture, concentration at which cell cytotoxicity by virus is inhibited 50%

| SMILES | pEC50 |
| --- | --- |
| Cc1ccc(-c2c(C)c3c(c(C)c2[C@H](OC(C)(C)C)C(=O)O)NC(=O)CCc2ccccc2-3)cc1 [Compound 42] | 8.00 |
| COc1cc2c(cn1)-c1c(C)c(-c3ccc4c(c3C)NCCO4)c([C@H](OC(C)(C)C)C(=O)O)c(C)c1N(S(C)(=O)=O)C2 [Compound 322] | 7.96 |
| Cc1ccc(-c2c(C)c3c(c(C)c2[C@H](OC(C)(C)C)C(=O)O)N(S(C)(=O)=O)Cc2cc(C)cnc2-3)cc1 [Compound 315] | > 8.11 |
| Cc1c(-c2c(C)c3c(c(C)c2[C@H](OC(C)(C)C)C(=O)O)N(S(C)(=O)=O)Cc2cc(F)cnc2-3)ccc2c1NCCO2 [Compound 310] | 7.60 |

Same assay, conditions: Human immunodeficiency virus 1, MT4, 96 h, Table A-2, four days

| pEC50 | SMILES |
| --- | --- |
| 7.21 | Cc1ccc(-c2c(C)c3c(c(C)c2[C@H](OC(C)(C)C)C(=O)O)NS(=O)(=O)N(C(c2ccccc2)c2ccccc2)CC3)cc1 [Compound 134] |
| 8.00 | Cc1ccc(-c2c([C@H](OC(C)(C)C)C(=O)O)c(C)c3nc(O)c4cc(F)cnc4c3c2C)cc1 [Compound 100] |
| 7.06 | Cc1ccc(-c2c(C)c3c(c(C)c2[C@H](OC(C)(C)C)C(=O)O)NS(=O)(=O)N(C2CCOCC2)CC3)cc1 [Compound 131] |
| 7.66 | COCCN1CCc2c(C)c(-c3ccc(C)cc3)c([C@H](OC(C)(C)C)C(=O)O)c(C)c2NS1(=O)=O [Compound 132] |
| 8.42 | COc1ccc2c(c1)CN(S(C)(=O)=O)c1c(C)c([C@H](OC(C)(C)C)C(=O)O)c(-c3ccc(C)cc3)c(C)c1-2 [Compound 122] |

Same assay, conditions: Human immunodeficiency virus 1, MT4, 96 h, Table A-3, four days

| pEC50 | SMILES |
| --- | --- |
| 7.89 | COc1cc(C)c2c(c1)CN(S(C)(=O)=O)c1c(C)c([C@H](OC(C)(C)C)C(=O)O)c(-c3ccc(C)cc3)c(C)c1-2 [Compound 162] |
| 8.03 | Cc1ccc(-c2c(C)c3c(c(C)c2[C@H](OC(C)(C)C)C(=O)O)N(S(C)(=O)=O)Cc2c-3cccc2C(F)(F)F)cc1 [Compound 173] |
| 8.54 | Cc1ccc(-c2c(C)c3c(c(C)c2[C@H](OC(C)(C)C)C(=O)O)N(S(C)(=O)=O)Cc2cc4c(cc2-3)OCCCO4)cc1 [Compound 175] |

Second part, the compound before the results:

| SMILES | pEC50 |
| --- | --- |
| Cc1ccc(-c2c(C)c3c(c(C)c2[C@H](OC(C)(C)C)C(=O)O)NC(=O)N(CC2CCCCC2)CC3)cc1 [Compound 150] | 7.66 |
| COc1ccc2c(c1F)CN(S(C)(=O)=O)c1c(C)c([C@H](OC(C)(C)C)C(=O)O)c(-c3ccc(C)cc3)c(C)c1-2 [Compound 174] | 8.82 |
| Cc1ccc(-c2c(C)c3c(c(C)c2[C@H](OC(C)(C)C)C(=O)O)N(S(C)(=O)=O)Cc2c(F)cccc2-3)cc1 [Compound 163] | 7.82 |

Same assay, conditions: Human immunodeficiency virus 1, MT4, 96 h, Table A-4, four days

| pEC50 | SMILES |
| --- | --- |
| 8.60 | Cc1c(-c2c(C)c3c(c(C)c2[C@H](OC(C)(C)C)C(=O)O)N(S(C)(=O)=O)Cc2cccc(F)c2-3)ccc2c1CCCO2 [Compound 224] |
| 7.82 | Cc1ccc(-c2c([C@H](OC(C)(C)C)C(=O)O)c(C)c3nc(N)c4cc(F)cnc4c3c2C)cc1 [Compound 245] |
| 7.09 | Cc1ccc(-c2c([C@H](OC(C)(C)C)C(=O)O)c(C)c3ncc4cc(F)cnc4c3c2C)cc1 [Compound 239] |

The next lines start with the compound.

| SMILES | pEC50 |
| --- | --- |
| Cc1ccc(-c2c([C@H](OC(C)(C)C)C(=O)O)c(C)c3nc(O)c4cc(F)c(F)cc4c3c2C)cc1 [Compound 231] | 7.11 |
| Cc1ccc(-c2c([C@H](OC(C)(C)C)C(=O)O)c(C)c3nc(O)c4ccc(C)nc4c3c2C)cc1 [Compound 217] | 7.39 |

Same assay, conditions: Human immunodeficiency virus 1, MT4, 96 h, Table A-5, four days

| pEC50 | SMILES |
| --- | --- |
| 8.35 | Cc1c(-c2c(C)c3c(c(C)c2[C@H](OC(C)(C)C)C(=O)O)N(S(C)(=O)=O)Cc2cccc(F)c2-3)cc(F)c2c1CCCO2 [Compound 273] |
| > 8.11 | Cc1c(-c2ccc3c(c2Cl)NCCO3)c([C@H](OC(C)(C)C)C(=O)O)c(C)c2c1-c1c(F)ccc(F)c1CN2S(C)(=O)=O [Compound 296] |
| 7.85 | Cc1c(-c2ccc3c(c2)NCCO3)c([C@H](OC(C)(C)C)C(=O)O)c(C)c2c1-c1c(F)cccc1CN2S(C)(=O)=O [Compound 260] |
| 8.41 | Cc1c(C2=CCC(C)(C)CC2)c([C@H](OC(C)(C)C)C(=O)O)c(C)c2c1-c1c(F)cccc1CN2S(C)(=O)=O [Compound 258] |
| 8.68 | Cc1ccc2c(c1F)CN(S(C)(=O)=O)c1c(C)c([C@H](OC(C)(C)C)C(=O)O)c(-c3ccc4c(c3C)CCCO4)c(C)c1-2 [Compound 251] |

Further lines, the compound ahead of its results:

| SMILES | pEC50 |
| --- | --- |
| COc1ccc2c(c1F)CN(S(C)(=O)=O)c1c(C)c([C@H](OC(C)(C)C)C(=O)O)c(-c3ccc4c(c3C)NCCO4)c(C)c1-2 [Compound 293] | 8.48 |
| Cc1c(-c2c(C)c3c(c(C)c2[C@H](OC(C)(C)C)C(=O)O)N(S(C)(=O)=O)Cc2c(F)ccc(F)c2-3)ccc2c1NCCO2 [Compound 249] | 8.24 |

Same assay, conditions: Human immunodeficiency virus 1, MT4, 96 h, Table A-7, four days

| pEC50 | SMILES |
| --- | --- |
| 7.59 | Cc1c(-c2c(C)c3c(c(C)c2[C@H](OC(C)(C)C)C(=O)O)N(S(C)(=O)=O)[C@@H](C)c2cccnc2-3)ccc2c1NCCO2 [Compound 337] |
| 8.14 | Cc1c(-c2c(C)c3c(c(C)c2[C@H](OC(C)(C)C)C(=O)O)N(S(C)(=O)=O)Cc2cccc(F)c2-3)ccc(Cl)c1N [Compound 327] |

More lines, now with the values behind:

| SMILES | pEC50 |
| --- | --- |
| COc1ccc(-c2c(C)c3c(c(C)c2[C@H](OC(C)(C)C)C(=O)O)N(S(C)(=O)=O)Cc2c(F)ccc(F)c2-3)c(C)n1 [Compound 329] | 7.41 |
| Cc1ccc(-c2c(C)c3c(c(C)c2[C@H](OC(C)(C)C)C(=O)O)N(C(N)=O)Cc2c(F)ccc(F)c2-3)cc1 [Compound 335] | 7.52 |

Same assay, conditions: Human immunodeficiency virus 1, MT4, 96 h, Table A-8 (continuation of Tables A-1 to A-9), four days

| pEC50 | SMILES |
| --- | --- |
| 7.72 | Cc1ccc(-c2c(C)c3c(c(C)c2[C@H](OC2(C)CCC2)C(=O)O)N(S(C)(=O)=O)Cc2cccc(F)c2-3)cc1 [Compound 375] |
| 8.41 | COc1cnc2c(c1)CN(S(C)(=O)=O)c1c(C)c([C@H](OC(C)(C)C)C(=O)O)c(-c3ccc(C)cc3)c(C)c1-2 [Compound 368] |

The remaining lines, values behind:

| SMILES | pEC50 |
| --- | --- |
| Cc1c(-c2ccc(Cl)cc2)c([C@H](OC2(C)CCC2)C(=O)O)c(C)c2c1-c1c(F)cccc1CN2S(C)(=O)=O [Compound 378] | 7.44 |
| Cc1ccc(-c2c(C)c3c(c(C)c2[C@H](OC(C)(C)C)C(=O)O)N(S(C)(=O)=O)Cc2c(C)ccnc2-3)cc1 [Compound 392] | 7.51 |

Same assay, conditions: Human immunodeficiency virus 1, MT4, 96 h, Table A-9, four days

| pEC50 | SMILES |
| --- | --- |
| 7.84 | Cc1ccc(-c2c(C)c3c(c(C)c2[C@H](OC(C)(C)C)C(=O)O)N(S(C)(=O)=O)Cc2c(F)ncc(F)c2-3)cc1 [Compound 403] |

Same assay, conditions: Table A-2, four days

| pEC50 | SMILES |
| --- | --- |
| 7.42 | Cc1ccc(-c2c(C)c3c(c(C)c2[C@H](OC(C)(C)C)C(=O)O)N(S(C)(=O)=O)Cc2cc4c(cc2-3)OCCO4)cc1 [Compound 105] |
| 7.05 | Cc1ccc(-c2c(C)c3c(c(C)c2[C@H](OC(C)(C)C)C(=O)O)NS(=O)(=O)Cc2c(F)cccc2-3)cc1 [Compound 123] |
| 7.72 | Cc1ccc(-c2c(C)c3c(c(C)c2[C@H](OC(C)(C)C)C(=O)O)NS(=O)(=O)Cc2cc(C)ccc2-3)cc1 [Compound 117] |
